# Results: article PMC9323955, “Synthesis and Evaluation of Small Molecule Drug Conjugates Harnessing Thioester-Linked Maytansinoids” (Pharmaceutics, 2022)
# “Also recorded” adds a separate entry of the source.
# Key:
# [1] = system: sorafenib-resistant hepatocellular carcinoma; assay: Oncogene-induced, sorafenib-resistant HCC mouse model; assay type: in vivo
# Protocol: (§1) Cancer cells suspended in RPMI 1640 medium (11835-030, Thermo Fisher Scientific, Waltham, MA, USA) were mixed with Matrigel™ (356237, BD Biosciences, Franklin Lakes, NJ, USA) in a 1:1 ratio. Human triple-negative breast cancer HCC1806 (1 × 10^6 cells) cells were inoculated subcutaneously into the left flank of 6-week-old female nude mice (BioLASCO Taiwan, Taipei, Taiwan) using a 1 mL syringe with a 24G needle (AN-2425R, Terumo Medical Corp., Tokyo, Japan). Tumor dimensions were measured twice weekly using electronic calipers (FOW54-200-777, PRO-MAX), and the volume of tumor grown subcutaneously (mm^3) was calculated by the formula Volume = (length × width^2)/2. A combination of 10% DMA/20% Cremophor EL/70% 5% dextrose injection (D5W) was formulated to treat HCC1806 xenograft tumors. Mice with HCC1806 tumors were grouped and administered the indicated dosing regimen of 1 mg/kg for the conjugate and 0.3 mg/kg for the cytotoxic payloads DM1 and DM4 twice-weekly (day 1 and day 4) for 2 weeks when the mean tumor volume was approximately 200–250 mm^3 or 850–900 mm^3 (large tumors). The conjugate dose of 2 mg/kg was administered weekly for the large tumor study. The body weight and tumor volume of mice were measured twice weekly. In addition, a previously reported oncogene-induced, sorafenib-resistant HCC mouse model was used in the current study to examine the antitumor activities of synthesized compounds. Briefly, plasmids including transposase (pCMV(CAT)T7-SB100), human Akt1, and luciferase (pKT2/CLP-AKT-2A-OVA-HBc-HBs-LUC) and the N-Ras V12 mutant (pT/Caggs-NRASV12) were hydrodynamically injected (HDI) and the liver was monitored for the appearance of HCC. HCC mice with a total flux of more than 1 × 10^9 photons/s from IVIS imaging were used as treatment conjugates. The indicated conjugate was administered intravenously at 1 mg/kg 3 times per week over 2 weeks. IVIS imaging was repeatedly performed to follow tumor progression, and tumor tissue from treated HCC mice was collected for histological examination and RNA extraction after administration.
# Paraffin-embedded liver/tumor tissue sections were de-paraffined, re-hydrated, and then subjected to heat-induced antigen retrieval, followed by incubation with primary Abs. The primary antibodies used to detect Ki-67 and CD8α were SP6 (Abcam, Cambridge, UK) and D4W2Z (Cell Signaling Technology, Danvers, MA, USA), respectively. ImmPRESS anti-rat Ig, ImmPRESS anti-rabbit Ig, polymer detection kit, DAB peroxidase substrate kit (Vector laboratories, Burlingame, CA, USA), and liquid permanent red substrate (Dako, Glostrup, Denmark) and Hematoxylin Gill II (Leica, Wetzlar, Germany) were used for detection and visualization. Images were taken by NHRI’s Pathology Core Laboratory using an automated digital slide scanner Pannoramic MIDI with a Plan-Apochromat 20×/0.8 objective (3D HISTECH, Budapest, Hungary).
# Total RNA was extracted from conjugate-treated or vehicle-treated HCC mouse tumor tissue using the RNA-easy kit (QIAGEN, Hilden, Germany). The concentration (absorbance at 260 nm) and purity (A260/280 and A260/230 ratios) of the extracted RNA was measured spectrophotometrically; RNA integrity was further determined using the 2100 Bioanalyzer System (Agilent RNA was further determined for RNA integrity using a 2100 Bioanalyzer System (Agilent Technologies, Santa Clara, CA, USA). RNA was hybridized to the barcode probe provided in the nCounter Mouse Pan-Cancer Immunoassay Kit (NanoString Technologies, Seattle, WA, USA) and then used to measure mRNA expression of 770 genes associated with the immune response. Nanostring nSolver 4.0 and nCounter Advanced Analysis 2.0 software (NanoString Technologies) was used for data processing, immune cell analysis, and pathway scoring according to the developer’s instructions.
# [2] = system: HCC1806 human triple-negative breast cancer tumors; assay: HCC1806 xenograft tumor efficacy; assay type: in vivo, female nude mice
# Protocol: as §1
# [3] = Nanostring mRNA analysis vs vehicle
# [4] = Nanostring pathway scoring vs vehicle
smiles,measurement,setting,value
COc1cc2cc(c1Cl)N(C)C(=O)CC(OC(=O)C(C)N(C)C(=O)CCSC(=O)c1ccc(CN(CCOCCOCCNC(=O)c3ccc(CN(CCCCOc4cc(CN(Cc5ccccn5)Cc5ccccn5)cc(CN(Cc5ccccn5)Cc5ccccn5)c4)C(=O)C4(c5ccc(Cl)cc5)CCCCC4)cc3)C(=O)C3(c4ccc(Cl)cc4)CCCCC3)cc1)C1(C)OC1C(C)C1CC(O)(NC(=O)O1)C(OC)C=CC=C(C)C2.O=[N+]([O-])[O-].O=[N+]([O-])[O-].O=[N+]([O-])[O-].O=[N+]([O-])[O-].[Zn+2].[Zn+2] (stereo not drawn) [Zn8_DM1],anti-HCC tumor growth (flux of luciferase activity),[1]; 1 mg/kg i.v. 3 times a week for 2 weeks,potent anti-HCC tumor growth
same,CD8+ T-cell infiltration in tumors,[1]; CD8α immunohistochemistry,significant increase
same,CXCL9 gene expression in tumor tissue,[1]; [3],significant upregulation
same,PD-L1 gene expression in tumor tissue,[1]; [3],elevated PD-L1 gene expression
same,STAT1 gene expression in tumor tissue,[1]; [3],elevated
same,NK cell function score in TME,[1]; [4],significant improvement
same,T-cell function score in TME,[1]; [4],significant improvement
same,interferon score in TME,[1]; [4],significant improvement
same,Ki-67 staining of tumor samples,"[1]; immunohistochemistry, treated tumor",marked reduction in Ki-67 staining
same,liver tumor burden vs vehicle,[1]; livers harvested a week post last dose,less tumor burden
same,anti-HCC1806 tumor growth activity,"[2]; 1 mg/kg i.v. twice weekly for 2 weeks, tumors 200–250 mm^3",significant activities; also recorded: shrinkage of HCC1806 tumor growth
same,effect on large HCC1806 tumors,"[2]; 2 mg/kg per week for two weeks, tumors ~900 mm^3",could readily arrest or shrink the growth of larger tumors
